# Like-named read-outs stand apart in the source and are kept apart here.
# Legend:
# DLD-1 BRCA2−/− cells = assay: Homologous recombination synthetic lethal inhibition of proliferation, DLD-1 BRCA2-/- (Cell Titre Glo 3D); format: cell-based; details: Homo sapiens, DLD-1, 288 h, 12 days
# How it was run: (§1)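 Proliferation of HR-deficient DLD-1 BRCA2−/− versus isogenic wild-type DLD-1 was measured by ATP luminescence (CellTiter-Glo 3D). Compound exposure lasted 12 or 7 days, respectively, with a fresh dose on day 6. IC50 was the concentration halving maximal signal.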
# DLD-1 cells = assay: Inhibition of proliferation, DLD-1 BRCA2 wt control (Cell Titre Glo 3D); format: cell-based; details: Homo sapiens, DLD-1, 168 h, 7 days
# How it was run: as §1
# [1] = DLD-1 BRCA2−/− cells, read-out: POLQ PD Prolif Lumin BRCA2 −/− mean pIC50 (converted)
# [2] = DLD-1 BRCA2 wt cells, read-out: POLQ PD Prolif Lumin DLD1 mean pIC50 (converted)
# [3] = DLD-1 BRCA2−/−, Cell Titre Glo 3D, read-out: POLQ PD Prolif Lumin BRCA2 −/− Mean pIC50 (converted)
# [4] = DLD-1 (BRCA2 wt control), Cell Titre Glo 3D, read-out: POLQ PD Prolif Lumin DLD1 Mean pIC50 (converted)
IC50 (DLD-1 cells; [2]),IC50 (DLD-1 cells; [4]),Compound,IC50 (DLD-1 BRCA2−/− cells; [1]),IC50 (DLD-1 BRCA2−/− cells; [3])
5010 nM,,"CC1(Oc2ncnc3c2nc(-c2ccc(OCCN4CC5(CNC5)C4)cc2Cl)n3Cc2ccccc2)CC1 [Example 18, 8-(4-(2-(2,6-Diazaspiro[3.3]heptan-2-yl)ethoxy)-2-chlorophenyl)-9-benzyl-6-(1-methylcyclopropoxy)-9H-purine]",398 nM,
> 10000 nM,,"Cc1cc(N2CC(N)C2)ncc1-c1nc2c(OC3(C)CC3)ncnc2n1Cc1ccccc1 [Example 19, 1-(5-(9-Benzyl-6-(1-methylcyclopropoxy)-9H-purin-8-yl)-4-methylpyridin-2-yl)azetidin-3-amine]",501 nM,
7940 nM,,"CN1CCN(CCOc2cc(Cl)c(-c3nc4c(OC5(C)CC5)ncnc4n3Cc3ccccc3)cn2)CC1 [Example 20, 9-Benzyl-8-(4-chloro-6-(2-(4-methylpiperazin-1-yl)ethoxy)pyridin-3-yl)-6-(1-methylcyclopropoxy)-9H-purine]",398 nM,
> 10000 nM,,"Cc1cc(OCCN2CCCC2)ncc1-c1nc2c(OC3(C)CC3)ncnc2n1Cc1ccccc1 [Example 21, 9-Benzyl-8-(4-methyl-6-(2-(pyrrolidin-1-yl)ethoxy)pyridin-3-yl)-6-(1-methylcyclopropoxy)-9H-purine]",398 nM,
> 10000 nM,,"Cc1c(OCCN2CCNCC2)cncc1-c1nc2c(OC3(C)CC3)ncnc2n1Cc1ccccc1 [Example 22, 9-Benzyl-8-(4-methyl-5-(2-(piperazin-1-yl)ethoxy)pyridin-3-yl)-6-(1-methylcyclopropoxy)-9H-purine]",631 nM,
> 10000 nM,,"CC1(Oc2ncnc3c2nc(-c2ccc(OCCN4CCNCC4)cc2Cl)n3Cc2cccc(Cl)n2)CC1 [Example 23, 8-(2-chloro-4-(2-(piperazin-1-yl)ethoxy)phenyl)-9-((6-chloropyridin-2-yl)methyl)-6-(1-methylcyclopropoxy)-9H-purine]",631 nM,
> 10000 nM,,"Cc1ccnc(Cn2c(-c3ccc(OCCN(C)C)cc3Cl)nc3c(OC4(C)CC4)ncnc32)c1 [Example 25, 2-(3-Chloro-4-(6-(1-methylcyclopropoxy)-9-((4-methylpyridin-2-yl)methyl)-9H-purin-8-yl)phenoxy)-N,N-dimethylethan-1-amine]",100 nM,
> 10000 nM,,"Cc1ccnc(Cn2c(-c3ccc(OCCN4CC(O)C4)cc3Cl)nc3c(OC4(C)CC4)ncnc32)c1 [Example 26, 1-(2-(3-Chloro-4-(6-(1-methylcyclopropoxy)-9-((4-methylpyridin-2-yl)methyl)-9H-purin-8-yl)phenoxy)ethyl)azetidin-3-ol]",501 nM,
,> 10000 nM,"Cc1ccnc(Cn2c(-c3ccc(CC(N)=O)cc3Cl)nc3c(OC4(C)CC4)ncnc32)c1 [Example 30, 2-(3-Chloro-4-(6-(1-methylcyclopropoxy)-9-((4-methylpyridin-2-yl)methyl)-9H-purin-8-yl)phenyl)acetamide]",,631 nM
,> 10000 nM,"CC1(Oc2ncnc3c2nc(-c2ccc(/C=C/C(=O)O)cc2Cl)n3Cc2cccc(Cl)c2)CC1 [Example 31, (E)-3-(3-Chloro-4-(9-(3-chlorobenzyl)-6-(1-methylcyclopropoxy)-9H-purin-8-yl)phenyl)acrylic acid]",,398 nM
,> 10000 nM,"CC1(Oc2ncnc3c2nc(-c2ccc(OCC(C)(C)C(=O)O)cc2Cl)n3Cc2cccc(Cl)c2)CC1 [Example 32, 3-(3-Chloro-4-(9-(3-chlorobenzyl)-6-(1-methylcyclopropoxy)-9H-purin-8-yl)phenoxy)-2,2-dimethylpropanoic acid]",,631 nM
,> 10000 nM,"Cc1ccnc(Cn2c(-c3ccc(OCCO)cc3Cl)nc3c(OC4(C)CC4)ncnc32)c1 [Example 33, 2-(3-Chloro-4-(6-(1-methylcyclopropoxy)-9-((4-methylpyridin-2-yl)methyl)-9H-purin-8-yl)phenoxy)ethan-1-ol]",,126 nM
,> 10000 nM,"Cc1ccnc(Cn2c(-c3ccc(OC[C@H](C)O)cc3Cl)nc3c(OC4(C)CC4)ncnc32)c1 [Example 36, (S)-1-(3-Chloro-4-(6-(1-methylcyclopropoxy)-9-((4-methylpyridin-2-yl)methyl)-9H-purin-8-yl)phenoxy)propan-2-ol]",,251 nM
,> 10000 nM,"Cc1ccnc(Cn2c(-c3ccc(OC[C@@H](C)O)cc3Cl)nc3c(OC4(C)CC4)ncnc32)c1 [Example 37, (R)-1-(3-Chloro-4-(6-(1-methylcyclopropoxy)-9-((4-methylpyridin-2-yl)methyl)-9H-purin-8-yl)phenoxy)propan-2-ol]",,126 nM
,> 10000 nM,"CC1(Oc2ncnc3c2nc(-c2ccc(CC(N)=O)cc2Cl)n3Cc2cc(Cl)ccn2)CC1 [Example 38, 2-(3-Chloro-4-(9-((4-chloropyridin-2-yl)methyl)-6-(1-methylcyclopropoxy)-9H-purin-8-yl)phenyl)acetamide]",,398 nM
,> 10000 nM,"Cc1ccnc(Cn2c(-c3ccc(OC4CN(C(=O)CO)C4)cc3Cl)nc3c(OC4(C)CC4)ncnc32)c1 [Example 39, 1-(3-(3-Chloro-4-(6-(1-methylcyclopropoxy)-9-((4-methylpyridin-2-yl)methyl)-9H-purin-8-yl)phenoxy)azetidin-1-yl)-2-hydroxyethan-1-one]",,158 nM
,> 10000 nM,"CC(=O)N1CC(Oc2ccc(-c3nc4c(OC5(C)CC5)ncnc4n3Cc3cc(C)ccn3)c(Cl)c2)C1 [Example 40, 1-(3-(3-Chloro-4-(6-(1-methylcyclopropoxy)-9-((4-methylpyridin-2-yl)methyl)-9H-purin-8-yl)phenoxy)azetidin-1-yl)ethan-1-one]",,158 nM
,> 10000 nM,"Cc1ccnc(Cn2c(-c3ccc(O[C@H]4CCC(=O)NC4)cc3Cl)nc3c(OC4(C)CC4)ncnc32)c1 [Example 41, (S)-5-(3-Chloro-4-(6-(1-methylcyclopropoxy)-9-((4-methylpyridin-2-yl)methyl)-9H-purin-8-yl)phenoxy)piperidin-2-one]",,794 nM
,> 10000 nM,"Cc1ccnc(Cn2c(-c3ccc(OC4CNC(=O)NC4)cc3Cl)nc3c(OC4(C)CC4)ncnc32)c1 [Example 42, 5-(3-Chloro-4-(6-(1-methylcyclopropoxy)-9-((4-methylpyridin-2-yl)methyl)-9H-purin-8-yl)phenoxy)tetrahydropyrimidin-2(1H)-one]",,6310 nM
,> 10000 nM,"CC1(Oc2ncnc3c2nc(-c2ccc(OCCCCC(=O)O)cc2Cl)n3Cc2cccc(Cl)c2)CC1 [Example 43, 5-(3-Chloro-4-(9-(3-chlorobenzyl)-6-(1-methylcyclopropoxy)-9H-purin-8-yl)phenoxy)pentanoic acid]",,79.4 nM
,> 10000 nM,"CC1(Oc2ncnc3c2nc(-c2ccc(OCCCC(=O)O)cc2Cl)n3Cc2cccc(Cl)c2)CC1 [Example 44, 4-(3-Chloro-4-(9-(3-chlorobenzyl)-6-(1-methylcyclopropoxy)-9H-purin-8-yl)phenoxy)butanoic acid]",,158 nM
,> 10000 nM,"Cc1ccnc(Cn2c(-c3ccc(OCC(C)(C)O)cc3Cl)nc3c(OC4(C)CC4)ncnc32)c1 [Example 45, 1-(3-Chloro-4-(6-(1-methylcyclopropoxy)-9-((4-methylpyridin-2-yl)methyl)-9H-purin-8-yl)phenoxy)-2-methylpropan-2-ol]",,200 nM
,> 10000 nM,"CC1(Oc2ncnc3c2nc(-c2ccc(OCCOCC(=O)O)cc2Cl)n3Cc2cccc(Cl)c2)CC1 [Example 46, 2-(2-(3-Chloro-4-(9-(3-chlorobenzyl)-6-(1-methylcyclopropoxy)-9H-purin-8-yl)phenoxy)ethoxy)acetic acid]",,1260 nM
,> 7940 nM,"COc1ccc(Cl)cc1Cn1c(-c2ccc(OCC[C@@H](C)C(=O)O)cc2Cl)nc2c(OC3(C)CC3)ncnc21 [Example 47, (R)-4-(3-chloro-4-(9-(5-chloro-2-methoxybenzyl)-6-(1-methylcyclopropoxy)-9H-purin-8-yl)phenoxy)-2-methylbutanoic acid]",,25.1 nM
,> 10000 nM,"COc1ccc(Cl)cc1Cn1c(-c2ccc(OCC[C@H](C)C(=O)O)cc2Cl)nc2c(OC3(C)CC3)ncnc21 [Example 48, (S)-4-(3-chloro-4-(9-(5-chloro-2-methoxybenzyl)-6-(1-methylcyclopropoxy)-9H-purin-8-yl)phenoxy)-2-methylbutanoic acid]",,39.8 nM
,> 10000 nM,"COc1ccc(Cl)cc1Cn1c(-c2cccc(OCCC(=O)O)c2Cl)nc2c(OC3(C)CC3)ncnc21 [Example 49, 3-(2-Chloro-3-(9-(5-chloro-2-methoxybenzyl)-6-(1-methylcyclopropoxy)-9H-purin-8-yl)phenoxy)propanoic acid]",,15.8 nM
,> 10000 nM,"COc1ccc(Cl)cc1Cn1c(-c2cccc(O[C@H]3C[C@@H](C(=O)O)C3)c2Cl)nc2c(OC3(C)CC3)ncnc21 [Example 52, (1s,3s)-3-(2-chloro-3-(9-(5-chloro-2-methoxybenzyl)-6-(1-methylcyclopropoxy)-9H-purin-8-yl)phenoxy)cyclobutane-1-carboxylic acid]",,12.6 nM

Compound,IC50 (DLD-1 cells; [2]),IC50 (DLD-1 cells; [4]),IC50 (DLD-1 BRCA2−/− cells; [1]),IC50 (DLD-1 BRCA2−/− cells; [3])
"Cc1cc(OCCN2CCNCC2)ncc1-c1nc2c(OC3(C)CCC3)ncnc2n1Cc1ccccc1 [Example 24, 9-Benzyl-8-(4-methyl-6-(2-(piperazin-1-yl)ethoxy)pyridin-3-yl)-6-(1-methylcyclobutoxy)-9H-purine]",3980 nM,,158 nM,

# Source: patent US20250195530A1, “POLQ INHIBITORS” (ASTRAZENECA AB, priority 2022, published 2025)
